Consider 31 molecules from patent US7253286B2, “Nitrogen-containing aromatic derivatives” (Eisai Co., Ltd, priority 2000, dated 2007).

For this assay, the system named is Human Umbilical Vein Endothelial Cells (HUVECs). The experiment in a line: Inhibition against sandwich tube formation by vascular endothelial cells in response to stimulation by VEGF. Type of assay: cell-based. As to conditions: HUVEC in collagen gel sandwich, stimulation by VEGF (25 ng/ml VEGF and 10 ng/ml EGF), 4th day, total tube length, read-out: IC50 (concentration required for 50% inhibition of tube formation). How it is done: Inhibition Against Sandwich Tube Formation by Vascular Endothelial Cells in Response to Stimulation by Angiogenic Factor
Human Umbilical Vein Endothelial Cells (HUVECS) were isolated by the same method as in Pharmacological Test Example 1, and were cultured in a 5% CO2 incubator (37° C.) using EGM-2 medium (purchased from Clonetics Corp.) until the cells reached confluency.
An ice-cooled mixture of collagen: 5× RPMI 1640: reconstitution buffer (all purchased from Nitta Gelatin, Inc.) at 7:2:1 was dispensed at 0.4 ml into each well of a 24-well plate, and then stationed for 40 minutes in a 5% CO2 incubator (37° C.) for gelling. The HUVECs were recovered using trypsin-EDTA and then suspended in human endothelial serum free medium (SFM, purchased from GIBCO BRL) containing added angiogenic factors [20 ng/ml FGF2 (purchased from GIBCO BRL) and 10 ng/ml EGF (purchased from GIBCO BRL), or 25 ng/ml VEGF (purchased from Wako Pure Chemical Industries Co., Ltd.) and 10 ng/ml EGF, or 30 ng/ml HGF (purchased from R&D Co.) and 10 ng/ml EGF], and the cell suspension was added at 0.4 ml to each well (with the cell counts differing slightly according to the HUVEC lot), and cultured overnight in a 5% CO2 incubator (37° C.). On the following day, the medium on the upper layer was aspirated off, and then 0.4 ml of an ice-cooled mixture of collagen: 5× RPMI 1640: reconstitution buffer (all purchased from Nitta Gelatin, Inc.) at 7:2:1 was superposed into each well prior to stationing for 4 hours in a 5% CO2 incubator (37° C.) for gelling. After adding 1.5 ml of an SFM solution containing each of the aforementioned angiogenic factors and a diluted test substance onto the upper layer, culturing was performed in a 5% CO2 incubator (37° C.). Upon aspirating off the culture supernatant in each well on the 4th day after addition of the test substance, 0.4 ml of a 3.3 mg/ml MTT solution dissolved in PBS (purchased from Sigma Corp.) was added to each well and culturing was performed for approximately 2 hours in a 5% CO2 incubator (37° C.). The tubes formed in the collagen gel of each well were stained by the MTT, the tube images were loaded into a computer (Macintosh), and the total length of the tubes was determined by image analysis software “MacScope” (purchased from Mitani Corp.). The ratio of the total length of the tubes formed in the well containing the test substance with respect to the total length of the tubes formed in the well containing no test substance was expressed as a percentage, and the concentration of each test substance required for 50% inhibition of tube formation (IC50) was determined from the ratio value.
Regarding `COCCOc1cc2nccc(Oc3ccc(NC(=O)Nc4nccs4)cc3)c2cc1C#N` [Example 12, N-(4-(6-cyano-7-(2-methoxyethoxy)-4-quinolyl)oxyphenyl)-N′-(1,3-thiazol-2-yl)urea], the IC50 was found to be 44 nM.

As for `COCCOc1cc2nccc(Oc3ccc(NC(=O)Nc4cccc(C#N)c4)cc3)c2cc1C#N` [Example 19, N-(4-(6-Cyano-7-(2-methoxyethoxy)-4-quinolyl)oxyphenyl)-N′-(3-cyanophenyl)urea], the IC50 was determined as 28 nM.

Consider `COCCOc1cc2nccc(Oc3ccc(NC(=O)NC4CC4)cc3)c2cc1C#N` [Example 23, N-(4-(6-cyano-7-(2-methoxyethoxy)-4-quinolyl)oxyphenyl)-N′-cyclopropylurea], for which the IC50 is 100 nM. For the molecule `CS(=O)(=O)CCOc1cc2nccc(Oc3ccc(NC(=O)Nc4ccc(F)cc4)cc3)c2cc1C#N` [Example 59, N-(4-(6-Cyano-7-(2-(methylsulfonyl)ethoxy)-4-quinolyl)oxyphenyl)-N′-(4-fluorophenyl)urea], the IC50 was 170 nM. For `COC(=O)CCCOc1cc2nccc(Oc3ccc(NC(=O)Nc4ccc(OC)cc4)cc3)c2cc1C#N` [Example 70, N-(4-(6-Cyano-7-(3-methoxycarbonylpropoxy)-4-quinolyl)oxyphenyl)-N′-(4-methoxyphenyl)urea] the value was 58 nM; for `CS(=O)(=O)CCCOc1cc2nccc(Oc3ccc(NC(=O)Nc4ccc(F)cc4)cc3)c2cc1C#N` [Example 108, N-(4-(6-Cyano-7-(3-(methylsulfonyl)propoxy)-4-quinolyloxy)phenyl)-N′-(4-fluorophenyl)urea], 4.9 nM. Consider `CN1CCCC(COc2cc3nccc(Oc4ccc(NC(=O)Nc5ccc(F)cc5)c(F)c4)c3cc2C#N)C1` (stereo not shown) [Example 127, N-(4-(6-Cyano-7-((1-methylpiperidin-3-yl)methoxy)-4-quinolyl)oxy-2-fluorophenyl)-N′-(4-fluorophenyl)urea], for which the IC50 was determined as 7.5 nM. Take `COc1cc2nccc(Oc3ccc(NC(=O)Nc4ccccc4)cn3)c2cc1OC` [Example 129, N-6-((6,7-Dimethoxy-4-quinolyl)oxy)-3-pyridyl-N′-phenylurea]: the IC50 is 40 nM.

Turning to `N#Cc1cc2c(Oc3ccc(NC(=O)Nc4ccc(F)cc4)c(F)c3)ccnc2cc1OCCCC(=O)NC1CC1` [Example 137, N-(4-(6-Cyano-7-(3-((cyclopropylamino)carbonyl)propoxy)-4-quinolyl)oxy-2-fluorophenyl)-N′-(4-fluorophenyl)urea], the IC50 came out at 10 nM. For `O=C(Nc1ccc(Oc2ncnc3[nH]c(-c4ccc(OCCCN5CCCC5)cc4)cc23)cc1Cl)NC1CC1` [Example 155] the value was 1.4 nM. Turning to `CCN(CC)C[C@@H](O)COc1ccc(-c2cc3c(Oc4ccc(NC(=O)NC5CC5)c(Cl)c4)ncnc3[nH]2)cc1` [Example 157], the IC50 is 0.9 nM. Regarding `C#Cc1c(Oc2ccc(NC(=O)Nc3ccc(F)cc3)cc2)ccnc1N(C(=O)C1CC1)C(=O)C1CC1` [Example 186, N1-Cyclopropylcarbonyl-N1-[3-(1-ethynyl)-4-(4-{[(4-fluoroanilino)carbonyl]amino}phenoxy)-2-pyridyl]-1-cyclopropanecarboxamide], the IC50 came out at 23 nM. Take `O=C(Nc1cc(Oc2ccc3c(ccn3C(=O)Nc3ccccc3)c2)ccn1)C1CCN(CC2CC2)CC1` [Example 198, N1-Phenyl-5-{[2-({[(1-cyclopropylmethyl)-4-piperidyl]carbonyl}amino)-4-pyridyl]oxy}-1H-1-indolecarboxamide]: the IC50 is 1.5 nM.

Turning to `CN1CCC(C(=O)Nc2cc(Oc3ccc(NC(=O)Nc4ccc(F)cc4)c(Cl)c3)ccn2)CC1` [Example 202, N4-[4-(3-Chloro-4-{[(4-fluoroanilino)carbonyl]amino}phenoxy)-2-pyridyl]-1-methyl-4-piperidinecarboxamide], the IC50 stood at 15 nM. Take `CN1CCC(CC(=O)Nc2cc(Oc3ccc4c(ccn4C(=O)Nc4ccccc4)c3)ccn2)CC1` [Example 204, N1-Phenyl-5-[(2-{[2-(1-methyl-4-piperidyl)acetyl]amino}-4-pyridyl)oxy]-1H-1-indolecarboxamide]: the IC50 amounted to 0.9 nM. The same measure for `O=C(C1CC1)N(C(=O)C1CC1)c1cc(Oc2ccc3c(ccn3C(=O)NC3CC3)c2)ccn1` [Example 211, N1-Cyclopropyl-5-({2-[di(cyclopropylcarbonyl)amino]-4-pyridyl}oxy)-1H-1-indolecarboxamide]: 0.3 nM; for `O=C(Nc1cc(Oc2ccc3c(ccn3C(=O)NCCF)c2)ccn1)C1CC1` [Example 215, N1-(2-Fluoroethyl)-5-({2-[(cyclopropylcarbonyl)amino]-4-pyridyl}oxy)-1H-1-indolecarboxyamide]: 22 nM; for `COc1cc2nccc(Oc3ccc(NC(=O)Nc4nccs4)nc3)c2cc1OC` [Example 224, N-(5-(6,7-Dimethoxyquinolin-4-yloxy)pyridin-2-yl)-N′-(thiazol-2-yl)urea]: 26 nM. Take `COCCNC(=O)c1cc2c(Oc3ccc(NC(=O)NC4CC4)c(Cl)c3)ccnc2cc1OCCOC` [Example 249, N6-(2-Methoxyethyl)-4-(3-chloro-4-{[(cyclopropylamino)carbonyl]amino}phenoxy)-7-(2-methoxyethoxy)-6-quinolinecarboxamide]: the IC50 was 1.6 nM.

Take `COCCOc1cc2nccc(Sc3ccc(NC(=O)Nc4ccccc4F)s3)c2cc1C#N` [Example 256, 1-{5-[6-Cyano-7-(2-methoxyethoxy)quinolin-4-ylsulfanyl]thiophen-2-yl}-3-(2-fluorophenyl)urea]: the IC50 is 36 nM. In the case of `N#Cc1cc2c(Oc3ccc4c(ccn4C(=O)Nc4nccs4)c3)ccnc2cc1OCCCN1CCCC1` [Example 289, 5-[6-Cyano-7-(3-(pyrrolidin-1-yl)propoxy)quinolin-4-yloxy]indole-1-carboxylic acid (thiazol-2-yl)amide], the IC50 was found to be 4.6 nM. Turning to `CCN(CC)CCCOc1cc2nccc(Oc3ccc4[nH]ccc4c3)c2cc1C#N` [Example 296, 7-(3-Diethylaminopropoxy)-4-(1H-indol-5-yloxy)quinoline-6-carbonitrile], the IC50 was found to be 34 nM. For the molecule `CCNC(=O)n1ccc2cc(Oc3ccnc4cc(OCCCN5CCCC5)c(C#N)cc34)ccc21` [Example 299, 5-[6-Cyano-7-(3-(pyrrolidin-1-yl)propoxy)quinolin-4-yloxy]indole-1-carboxylic acid ethylamide], the IC50 came to 1 nM. `CCN(CC)CCCOc1cc2nccc(Oc3ccc4c(ccn4C(=O)Nc4nccs4)c3)c2cc1C#N` [Example 300, 5-[6-Cyano-7-(3 diethylaminopropoxy)quinolin-4-yloxy]indole-1-carboxylic acid (thiazol-2-yl)amide]: the IC50 worked out at 7.5 nM. The same measure for `CCNC(=O)n1ccc2cc(Oc3ccnc4cc(OCC5CCN(C)CC5)c(C#N)cc34)ccc21` [Example 304, 6-Cyano-4-(1-ethylcarbamoylindol-5-yloxy)-7-[(1-methylpiperidin-4-yl)methyloxy]quinoline]: 0.3 nM; for `CN1CCC(COc2cc3nccc(Oc4ccc5c(ccn5C(=O)Nc5nccs5)c4)c3cc2C#N)CC1` [Example 308]: 5.2 nM. Turning to `COc1cc2nccc(Oc3ccc4c(ccn4C(=O)NC(C)C)c3)c2cc1C(N)=O` [Example 320, 6-Carbamoyl-7-methoxy-4-[1-(1-methyl)ethylcarbamoyl-1H-indol-5-yloxy]quinoline], the IC50 was found to be 2.5 nM. Consider `COc1cc2nccc(Oc3ccc4c(ccn4C(=O)NCCCCl)c3)c2cc1C(N)=O` [Example 325, 6-Carbamoyl-4-[1-(3-chloropropylcarbamoyl)1H-indol-5-yloxy]-7-methoxyquinoline], for which the IC50 is 1 nM. Turning to `CCOCCCNC(=O)n1ccc2cc(Oc3ccnc4cc(OC)c(C(N)=O)cc34)ccc21` [Example 326, 6-Carbamoyl-4-[1-(3-ethoxypropylcarbamoyl)1H-indol-5-yloxy]-7-methoxyquinoline], the IC50 turned out to be 1 nM.

As to `CCN(CC)CCCNC(=O)n1ccc2cc(Oc3ccnc4cc(OC)c(C(N)=O)cc34)ccc21` [Example 327, 6-Carbamoyl-4-[1-(3-diethylaminopropylcarbamoyl)1H-indol-5-yloxy]-7-methoxyquinoline], the IC50 was determined as 56 nM. For `CCN(CC)CCCOc1cc2nccc(Oc3ccc(NC(=O)NC4CC4)c(F)c3)c2cc1C(N)=O` [Example 372, 4-(4-(Cyclopropylaminocarbonyl)amino-3-fluorophenoxy)-7-(3-(N,N-diethylamino)propoxy)-6-quinolinecarboxamide], the IC50 is 44 nM.
